The source of these data is US8871753B2, “Macrocyclic compounds and their use as kinase inhibitors” (Incyte Corporation, priority 2008, dated 2014).

Format in all cases: biochemical
The target of experiment [1] is T1, human JAK1 (a.a. 837-1142) (Homo sapiens, UniProt P23458).
T1 construct: human JAK1 (a.a. 837-1142); His tag (N); made in house; host or cells: insect cells (baculovirus)
In words: In vitro JAK kinase assay (HTRF, phosphorylation of a biotinylated peptide), JAK1. The following applies: Table B1; read-out: JAK1 IC50. An outline of the steps:
(§1)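 Kinase reactions ran at room temperature for 1 h with ATP matched per isoform (JAK1 90 μM, JAK2 30 μM, JAK3 3 μM). After an EDTA stop, the phosphorylated biotin-peptide was read by HTRF using Eu-Py20 and SA-APC after 40 min binding.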
On the technique in general: In TR-FRET formats the signal depends on donor and acceptor labels being close together.

The target in experiment [2] is T2, human JAK2 (a.a. 828-1132) (Homo sapiens, UniProt O60674).
T2 construct: JAK2 (a.a. 828-1132); His tag (N); made in house; host or cells: insect cells (baculovirus)
T2 sequence (O60674 828-1132): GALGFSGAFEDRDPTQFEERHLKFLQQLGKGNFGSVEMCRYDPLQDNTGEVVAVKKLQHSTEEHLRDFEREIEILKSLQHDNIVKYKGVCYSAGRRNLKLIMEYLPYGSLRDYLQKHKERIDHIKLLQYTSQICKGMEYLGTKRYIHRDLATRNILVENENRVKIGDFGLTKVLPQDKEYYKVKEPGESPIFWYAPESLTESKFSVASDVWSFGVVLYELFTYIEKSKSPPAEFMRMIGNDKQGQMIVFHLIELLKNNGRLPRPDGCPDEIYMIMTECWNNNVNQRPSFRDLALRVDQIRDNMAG
The experiment is described as follows: In vitro JAK kinase assay (HTRF, phosphorylation of a biotinylated peptide), JAK2. The following applies: Table B1. Put shortly:
as §1

The target in experiment [3] is T3, human JAK3 (a.a. 781-1124) (Homo sapiens, UniProt P52333).
T3 construct: JAK3 (a.a. 781-1124); His tag (N); made in house; host or cells: insect cells (baculovirus)
T3 sequence (P52333 781-1124): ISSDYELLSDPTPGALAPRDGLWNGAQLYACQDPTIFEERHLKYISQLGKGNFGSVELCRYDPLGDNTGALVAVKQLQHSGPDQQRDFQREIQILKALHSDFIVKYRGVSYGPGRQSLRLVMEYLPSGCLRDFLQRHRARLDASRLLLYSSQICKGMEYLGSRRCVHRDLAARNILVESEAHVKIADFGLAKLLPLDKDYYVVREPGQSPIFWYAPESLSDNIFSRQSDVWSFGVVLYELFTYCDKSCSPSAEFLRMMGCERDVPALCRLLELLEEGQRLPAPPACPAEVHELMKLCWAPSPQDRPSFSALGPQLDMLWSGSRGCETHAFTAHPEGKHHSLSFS
In words: In vitro JAK kinase assay (HTRF, phosphorylation of a biotinylated peptide), JAK3. The conditions noted are these: Table B1. An outline of the steps: as §1

The next experiment has as its target TYK2 (Homo sapiens, UniProt P29597). The experiment is described as follows: TYK2 kinase inhibition (Table A1). The conditions noted are these: Table B1.
The target in experiment [4] is T4, Recombinant Human Anaplastic Lymphoma Kinase (Homo sapiens, UniProt Q9UM73).
T4 construct: purchased Invitrogen, Carlsbad, Calif
T4 sequence (Q9UM73 19-1620): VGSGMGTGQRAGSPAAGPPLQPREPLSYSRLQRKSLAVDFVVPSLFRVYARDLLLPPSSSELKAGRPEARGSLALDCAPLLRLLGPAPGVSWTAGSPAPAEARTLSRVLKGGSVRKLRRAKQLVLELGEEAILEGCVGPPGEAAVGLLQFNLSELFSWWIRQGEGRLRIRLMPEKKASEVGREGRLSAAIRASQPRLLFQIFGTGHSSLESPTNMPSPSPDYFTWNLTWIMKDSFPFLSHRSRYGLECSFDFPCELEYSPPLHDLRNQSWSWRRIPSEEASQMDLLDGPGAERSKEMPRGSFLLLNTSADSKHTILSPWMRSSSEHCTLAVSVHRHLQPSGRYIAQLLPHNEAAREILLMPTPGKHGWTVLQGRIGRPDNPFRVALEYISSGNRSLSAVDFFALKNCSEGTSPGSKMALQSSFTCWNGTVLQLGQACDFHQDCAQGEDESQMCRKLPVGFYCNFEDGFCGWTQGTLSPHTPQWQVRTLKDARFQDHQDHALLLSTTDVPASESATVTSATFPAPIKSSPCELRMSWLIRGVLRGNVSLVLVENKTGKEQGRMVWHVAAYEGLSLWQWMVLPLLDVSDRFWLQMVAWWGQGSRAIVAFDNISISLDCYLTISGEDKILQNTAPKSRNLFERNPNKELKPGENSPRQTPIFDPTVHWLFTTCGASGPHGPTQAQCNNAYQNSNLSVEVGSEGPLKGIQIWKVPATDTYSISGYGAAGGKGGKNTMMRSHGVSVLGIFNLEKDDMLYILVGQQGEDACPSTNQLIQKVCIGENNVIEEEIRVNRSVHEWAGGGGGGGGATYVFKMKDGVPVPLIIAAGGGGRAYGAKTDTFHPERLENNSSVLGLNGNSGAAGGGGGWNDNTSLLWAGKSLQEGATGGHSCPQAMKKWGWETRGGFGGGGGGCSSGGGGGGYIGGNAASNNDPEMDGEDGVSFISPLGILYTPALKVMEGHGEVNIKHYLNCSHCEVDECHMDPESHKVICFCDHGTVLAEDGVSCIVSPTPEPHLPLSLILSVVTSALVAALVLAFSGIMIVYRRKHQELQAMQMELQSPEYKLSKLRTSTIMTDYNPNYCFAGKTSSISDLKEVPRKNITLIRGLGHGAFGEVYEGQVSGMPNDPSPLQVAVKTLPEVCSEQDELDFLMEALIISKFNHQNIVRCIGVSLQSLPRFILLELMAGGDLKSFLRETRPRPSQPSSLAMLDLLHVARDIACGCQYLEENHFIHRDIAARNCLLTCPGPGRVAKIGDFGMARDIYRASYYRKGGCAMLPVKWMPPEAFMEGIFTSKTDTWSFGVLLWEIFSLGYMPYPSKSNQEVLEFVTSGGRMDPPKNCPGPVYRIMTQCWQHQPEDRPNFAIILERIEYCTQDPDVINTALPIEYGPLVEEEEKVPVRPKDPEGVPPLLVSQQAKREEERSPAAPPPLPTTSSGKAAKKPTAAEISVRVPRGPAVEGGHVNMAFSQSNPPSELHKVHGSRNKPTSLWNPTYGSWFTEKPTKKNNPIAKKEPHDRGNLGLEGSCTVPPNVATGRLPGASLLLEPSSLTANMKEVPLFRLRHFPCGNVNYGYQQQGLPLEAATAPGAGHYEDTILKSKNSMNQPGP
In words: ALK HTRF kinase assay. The conditions noted are these: percentage inhibition of the example compound at a concentration of 500 nM or 1 mM (not specified which). Put shortly:
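Recombinant human ALK with biotinylated peptide substrate; phosphorylation detected by HTRF using Eu-labelled anti-phosphotyrosine antibody and streptavidin-allophycocyanin. IC50 from a sigmoidal fit with Hill slope.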

Counter-ions that a name gives are not always drawn. Where only a bound is given, the exact number is not on record here.

Sequence of TYK2 (P29597 whole entry): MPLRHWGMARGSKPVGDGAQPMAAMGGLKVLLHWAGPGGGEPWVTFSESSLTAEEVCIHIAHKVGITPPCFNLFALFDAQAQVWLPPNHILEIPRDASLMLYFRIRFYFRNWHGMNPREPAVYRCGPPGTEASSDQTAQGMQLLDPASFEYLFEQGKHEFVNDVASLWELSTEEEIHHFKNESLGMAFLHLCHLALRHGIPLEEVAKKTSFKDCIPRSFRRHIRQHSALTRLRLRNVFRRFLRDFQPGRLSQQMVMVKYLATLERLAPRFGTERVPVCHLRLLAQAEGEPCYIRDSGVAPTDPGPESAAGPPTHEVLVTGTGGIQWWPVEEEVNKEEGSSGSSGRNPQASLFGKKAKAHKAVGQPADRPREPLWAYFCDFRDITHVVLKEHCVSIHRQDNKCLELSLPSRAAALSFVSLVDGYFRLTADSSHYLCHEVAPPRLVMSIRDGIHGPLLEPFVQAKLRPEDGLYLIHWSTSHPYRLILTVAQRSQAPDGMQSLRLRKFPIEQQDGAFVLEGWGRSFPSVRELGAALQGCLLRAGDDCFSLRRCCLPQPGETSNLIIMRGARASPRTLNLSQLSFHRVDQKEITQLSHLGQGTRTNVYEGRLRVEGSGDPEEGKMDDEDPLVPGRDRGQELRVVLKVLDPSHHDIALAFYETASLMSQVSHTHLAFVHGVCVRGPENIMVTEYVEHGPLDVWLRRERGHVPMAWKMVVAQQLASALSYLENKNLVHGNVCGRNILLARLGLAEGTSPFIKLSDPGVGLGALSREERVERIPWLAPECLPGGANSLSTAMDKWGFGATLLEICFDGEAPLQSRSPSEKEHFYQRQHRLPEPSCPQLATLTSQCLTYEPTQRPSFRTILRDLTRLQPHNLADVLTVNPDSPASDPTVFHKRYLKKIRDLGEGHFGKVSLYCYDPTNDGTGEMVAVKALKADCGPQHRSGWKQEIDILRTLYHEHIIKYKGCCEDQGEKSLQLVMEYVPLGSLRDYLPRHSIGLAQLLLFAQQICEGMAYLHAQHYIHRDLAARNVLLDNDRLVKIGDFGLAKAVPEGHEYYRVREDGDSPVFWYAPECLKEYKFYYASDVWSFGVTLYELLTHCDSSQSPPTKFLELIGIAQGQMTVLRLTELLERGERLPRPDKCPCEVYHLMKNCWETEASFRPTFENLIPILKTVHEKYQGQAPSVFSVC
T1 sequence (P23458 849-1154): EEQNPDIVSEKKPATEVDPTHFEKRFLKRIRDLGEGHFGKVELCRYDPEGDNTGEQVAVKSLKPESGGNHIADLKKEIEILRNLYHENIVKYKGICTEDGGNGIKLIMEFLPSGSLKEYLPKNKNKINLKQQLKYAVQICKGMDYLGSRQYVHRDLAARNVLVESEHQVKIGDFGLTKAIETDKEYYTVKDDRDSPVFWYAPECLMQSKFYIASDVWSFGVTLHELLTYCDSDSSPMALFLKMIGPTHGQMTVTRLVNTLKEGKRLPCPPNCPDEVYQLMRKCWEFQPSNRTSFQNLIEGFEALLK

The IC50 is the midpoint of a concentration-inhibition curve. In the case of `O=C(Nc1ccc2cc1CCc1cncc(c1)Nc1ncc(Cl)c(n1)N2)N1CCN(c2ncccn2)CC1` [Example B309, N-[6-Chloro-2,4,8,18,22-pentaazatetracyclo[14.3.1.1(3,7).1(9,13)]docosa-1(20),3(22),4,6,9(21),10,12,16,18-nonaen-12-yl]-4-pyrimidin-2-ylpiperazine-1-carboxamide tris(trifluoroacetate)], the IC50 in experiment [1] is 0.021 µM; in experiment [2], 0.133 µM; in experiment [3] it was > 0.4 µM; against TYK2, 0.067 µM. Moreover, the “ALK % of inhibition at a concentration of 500 nM or 1 mM” value (shortened to “ALK % of inhibition”) in experiment [4] came out at 68%.

For the compound `N#Cc1ccc(N2CCN(C(=O)Nc3ccc4cc3CCc3cncc(c3)Nc3ncc(Cl)c(n3)N4)CC2)nc1` [Example B310, N-[6-Chloro-2,4,8,18,22-pentaazatetracyclo[14.3.1.1(3,7).1(9,13)]docosa-1(20),3(22),4,6,9(21),10,12,16,18-nonaen-12-yl]-4-(5-cyanopyridin-2-yl)piperazine-1-carboxamide tris(trifluoroacetate)], the IC50 in experiment [1] is 0.024 µM; in experiment [2], 0.061 µM; in experiment [3], > 0.4 µM; at TYK2, 0.044 µM. Further, in experiment [4], the “ALK % of inhibition” value worked out at 74%.

In the case of `N#Cc1cccnc1N1CCN(C(=O)Nc2ccc3cc2CCc2cncc(c2)Nc2ncc(Cl)c(n2)N3)CC1` [Example B311, N-[6-Chloro-2,4,8,18,22-pentaazatetracyclo[14.3.1.1(3,7).1(9,13)]docosa-1(20),3(22),4,6,9(21),10,12,16,18-nonaen-12-yl]-4-(3-cyanopyridin-2-yl)piperazine-1-carboxamide tris(trifluoroacetate)], the 50% inhibitory concentration (IC50) in experiment [1] is 0.02 µM; in experiment [2], 0.17 µM; in experiment [3], > 0.4 µM; against TYK2, 0.146 µM. Besides, in experiment [4], the “ALK % of inhibition” value worked out at 67%.

Consider `O=C(Nc1ccc2cc1CCc1cncc(c1)Nc1ncc(Cl)c(n1)N2)N1CCC(c2ccccc2)C1` (stereo not drawn) [Example B312, N-[6-Chloro-2,4,8,18,22-pentaazatetracyclo[14.3.1.1(3,7).1(9,13)]docosa-1(20),3(22),4,6,9(21),10,12,16,18-nonaen-12-yl]-3-phenylpyrrolidine-1-carboxamide bis(trifluoroacetate)], for which the IC50 was 0.005 µM in experiment [1], 0.07 µM in experiment [2], > 0.4 µM in experiment [3] and 0.042 µM against TYK2. In addition, in experiment [4], the “ALK % of inhibition” value worked out at 40%.

`O=C(Nc1ccc2cc1CCc1cncc(c1)Nc1ncc(Cl)c(n1)N2)N1CCC(c2cnccn2)C1` (stereo not drawn) [Example B313, N-[6-Chloro-2,4,8,18,22-pentaazatetracyclo[14.3.1.1(3,7).1(9,13)]docosa-1(20),3(22),4,6,9(21),10,12,16,18-nonaen-12-yl]-3-pyrazin-2-ylpyrrolidine-1-carboxamide tetrakis(trifluoroacetate)]: the half-inhibitory concentration (IC50) was 0.048 µM in experiment [1], 0.371 µM in experiment [2], > 0.4 µM in experiment [3] and > 0.4 µM against TYK2. For the same compound, the “ALK % of inhibition” value in experiment [4] was found to be 20%.

Consider `O=C(Nc1ccc2cc1CCc1cncc(c1)Nc1ncc(Cl)c(n1)N2)N1CCC(c2ccccc2)CC1` [Example B314, N-[6-Chloro-2,4,8,18,22-pentaazatetracyclo[14.3.1.1(3,7).1(9,13)]docosa-1(20),3(22),4,6,9(21),10,12,16,18-nonaen-12-yl]-4-phenylpiperidine-1-carboxamide bis(trifluoroacetate)], for which the half-inhibitory concentration (IC50) in experiment [1] is 0.028 µM; in experiment [2] it was 0.108 µM; in experiment [3] it was > 0.4 µM; against TYK2, 0.067 µM. Besides, the “ALK % of inhibition” value in experiment [4] amounted to 69%.

For `O=C(Nc1ccc2cc1CCc1cncc(c1)Nc1ncc(Cl)c(n1)N2)N1CCN2CCCC2C1` (stereo not drawn) [Example B315, N-[6-Chloro-2,4,8,18,22-pentaazatetracyclo[14.3.1.1(3,7).1(9,13)]docosa-1(20),3(22),4,6,9(21),10,12,16,18-nonaen-12-yl]hexahydropyrrolo[1,2-a]pyrazine-2(1H)-carboxamide tris(trifluoroacetate)], the IC50 in experiment [1] was 0.047 µM; in experiment [2], > 0.4 µM; in experiment [3], > 0.4 µM; on TYK2, 0.235 µM. For the same compound, the “ALK % of inhibition” value in experiment [4] was found to be 50%.

As to `O=C(Nc1ccc2cc1CCc1cncc(c1)Nc1ncc(Cl)c(n1)N2)N1CCn2c(nnc2C(F)(F)F)C1` [Example B316, N-[6-Chloro-2,4,8,18,22-pentaazatetracyclo[14.3.1.1(3,7).1(9,13)]docosa-1(20),3(22),4,6,9(21),10,12,16,18-nonaen-12-yl]-3-(trifluoromethyl)-5,6-dihydro[1,2,4]triazolo[4,3-a]pyrazine-7(8H)-carboxamide tris(trifluoroacetate)], the IC50 in experiment [1] is 0.016 µM; in experiment [2], 0.18 µM; in experiment [3], > 0.4 µM; at TYK2, 0.208 µM. Also, the “ALK % of inhibition” value in experiment [4] is listed as 64%.

With `CC(=O)N1CCN(C(=O)Nc2ccc3cc2CCc2cncc(c2)Nc2ncc(Cl)c(n2)N3)CC1` [Example B317, 4-Acetyl-N-[6-chloro-2,4,8,18,22-pentaazatetracyclo[14.3.1.1(3,7).1(9,13)]docosa-1(20),3(22),4,6,9(21),10,12,16,18-nonaen-12-yl]piperazine-1-carboxamide bis(trifluoroacetate)], the IC50 in experiment [1] was 0.057 µM; in experiment [2] it was > 0.4 µM; in experiment [3], > 0.4 µM; against TYK2, 0.356 µM. Also, in experiment [4], the “ALK % of inhibition” value was 50%.

Consider `CS(=O)(=O)N1CCN(C(=O)Nc2ccc3cc2CCc2cncc(c2)Nc2ncc(Cl)c(n2)N3)CC1` [Example B318, N-[6-Chloro-2,4,8,18,22-pentaazatetracyclo[14.3.1.1(3,7).1(9,13)]docosa-1(20),3(22),4,6,9(21),10,12,16,18-nonaen-12-yl]-4-(methylsulfonyl)piperazine-1-carboxamide bis(trifluoroacetate)], for which the 50% inhibitory concentration (IC50) in experiment [1] was 0.024 µM; in experiment [2], 0.371 µM; in experiment [3], > 0.4 µM; on TYK2, 0.07 µM. Besides, the “ALK % of inhibition” value in experiment [4] was 61%.

Regarding `O=C(Nc1ccc2cc1CCc1cncc(c1)Nc1ncc(Cl)c(n1)N2)N1CCN(S(=O)(=O)c2ccccc2)CC1` [Example B319, N-[6-Chloro-2,4,8,18,22-pentaazatetracyclo[14.3.1.1(3,7).1(9,13)]docosa-1(20),3(22),4,6,9(21),10,12,16,18-nonaen-12-yl]-4-(phenylsulfonyl)piperazine-1-carboxamide bis(trifluoroacetate)], the half-maximal inhibitory concentration (IC50) in experiment [1] was 0.042 µM; in experiment [2], > 0.4 µM; in experiment [3], > 0.4 µM; against TYK2, 0.288 µM. Moreover, the “ALK % of inhibition” value in experiment [4] was determined as 58%.

For `CC1CN(C(=O)Nc2ccc3cc2CCc2cncc(c2)Nc2ncc(Cl)c(n2)N3)CCN1c1ccccc1` (stereo not drawn) [Example B320, N-[6-Chloro-2,4,8,18,22-pentaazatetracyclo[14.3.1.1(3,7).1(9,13)]docosa-1(20),3(22),4,6,9(21),10,12,16,18-nonaen-12-yl]-3-methyl-4-phenylpiperazine-1-carboxamide tris(trifluoroacetate)], the half-maximal inhibitory concentration (IC50) in experiment [1] is 0.079 µM; in experiment [2] it was > 0.4 µM; in experiment [3] it was > 0.4 µM; against TYK2, > 0.4 µM. In experiment [4], the “ALK % of inhibition” value was determined as 57%.

Regarding `O=C(Nc1ccc2cc1CCc1cncc(c1)Nc1ncc(Cl)c(n1)N2)N1CCC(S(=O)(=O)c2ccccc2)C1` (stereo not drawn) [Example B321, N-[6-Chloro-2,4,8,18,22-pentaazatetracyclo[14.3.1.1(3,7).1(9,13)]docosa-1(20),3(22),4,6,9(21),10,12,16,18-nonaen-12-yl]-3-(phenylsulfonyl)pyrrolidine-1-carboxamide bis(trifluoroacetate)], the concentration for half-maximal inhibition (IC50) in experiment [1] was 0.075 µM; in experiment [2] it was 0.371 µM; in experiment [3], > 0.4 µM; against TYK2, > 0.4 µM. Also, the “ALK % of inhibition” value in experiment [4] was found to be 36%.

With `N#CC1(c2ccccc2)CCN(C(=O)Nc2ccc3cc2CCc2cncc(c2)Nc2ncc(Cl)c(n2)N3)CC1` [Example B322, N-[6-Chloro-2,4,8,18,22-pentaazatetracyclo[14.3.1.1(3,7).1(9,13)]docosa-1(20),3(22),4,6,9(21),10,12,16,18-nonaen-12-yl]-4-cyano-4-phenylpiperidine-1-carboxamide bis(trifluoroacetate)], the concentration for half-maximal inhibition (IC50) is 0.032 µM in experiment [1], 0.313 µM in experiment [2], > 0.4 µM in experiment [3] and 0.16 µM at TYK2. In addition, the “ALK % of inhibition” value in experiment [4] was determined as 74%.

On to `N#CNC(=O)Nc1ccc2cc1CCc1cccc(c1)Nc1ncc(Cl)c(n1)N2` [Example B323, N-[6-chloro-2,4,8,22-tetraazatetracyclo[14.3.1.1(3,7).1(9,13)]docosa-1(20),3(22),4,6,9(21),10,12,16,18-nonaen-12-yl]-N′-cyanourea trifluoroacetate], for which the IC50 stood at 0.012 µM in experiment [1], 0.014 µM in experiment [2], 0.0021 µM in experiment [3] and 0.00089 µM at TYK2. Besides, the “ALK % of inhibition” value in experiment [4] stood at 20%.
